Test results: patent US20250222028A1, “ENGINEERED IMMUNE CELL PLATFORM” (Cancer Research Technology Limited, priority 2022, published 2025)

What was measured:
Gli1 [1] = experiment: Gli1 expression by qRT-PCR in anti-CD3ε-stimulated murine CD8+ CTLs; format: cell-based
Protocol: FIG. 1. L-type Cav channel agonists increase Gli1 expression and enhance specific cell killing by murine CD8+ CTLs. CD8^+ T cells were isolated from the spleen and inguinal lymph nodes of Rag2^−/− OT-I mice, and CTLs were generated. (A) Cells were restimulated on day 9/10 for 3 hours using plate-bound anti-CD3ε in the presence of indicated concentrations of FPL 64176 or carrier control. RNA was extracted and Gli1 expression was assessed by qRT-PCR. Data is n=3 independent experiments. us=unstimulated cells. (B) An LDH cytotoxicity assay was performed using OT-I CTLs. On day 7, CTLs were co-cultured with Ova peptide-pulsed EL-4 cells in the presence of 10 μM FPL 64176 (squares) or carrier control (circles). Data is n=4 independent experiments. (C) Updated experiment of (A). Data is now n=4 independent experiments. Data is normalised to Tbp as a reference gene. 0h=unstimulated cells. (D) Same data as (B) represented differently. […] Error bars indicate SD. p values were calculated using an unpaired two-tailed Student's t test (C) or a two-way ANOVA (B/D). * indicates p<0.05, ** indicates p<0.01, **** indicates p<0.0001.
FIG. 2. FPL 64176 but not (R)-Baclofen nor Nefiracetam enhance Gli1 expression in murine CD8+ CTLs. Naïve CD8^+ T cells were isolated from the spleens of OT-I Rag2^−/− mice and CTLs were generated. Cells were restimulated using an anti-CD3ε mAb in the presence indicated concentrations of (A) FPL 64176, (B) (R)-Baclofen or (C) Nefiracetam (or carrier control). CTLs were pre-incubated with the relevant pharmacological agents for 40-50 mins prior to stimulation (ensuring sufficient time for the agents, e.g., FPL 64176, to enter the cell. Gli1 expression was assessed by qRT-PCR. Data is n=2 independent experiments. Error bars indicate SD.
To investigate a potential role for L-type Cav channel agonists in modulating CD8+ CTL activation and effector function, CD8+ T cells were isolated from the spleen and inguinal lymph nodes of Rag2−/− OT-I mice and CTLs were generated. […] OT-I mice bear a transgene encoding for a TCR that recognises a chicken ovalbumin (Ova) peptide fragment. Rag2−/− OT-I mice facilitate the isolation of naïve CD8+ T cell populations. Plates were coated using 2.5 μg/mL anti-CD3ε mAb and CD8+ CTLs were stimulated for 3 hours via the TCR in the presence of 5 or 10 μM FPL 64176, an L-type Cav channel agonist, or carrier control. Note that CD8+ CTLs were pre-incubated with FPL 64176 or carrier control for 40-50 mins before stimulation. Gli1 expression was assessed using qRT-PCR.
In brief, naïve CD8+ T cells were isolated from the spleen and inguinal lymph nodes of C57BL/6 wildtype mice and CTLs were generated. […] RNA was extracted from cells and Gli1 expression was assessed by qRT-PCR. […]

GLI1 [2] = experiment: GLI1 expression by qRT-PCR in NK-92 cells; format: cell-based, human; details: 10 μM
Protocol: FIG. 5. L-type Cav channel agonists increase GLI1 expression in the human NK cell line NK-92 and promote specific tumour cell killing. (A) NK-92 cells were stimulated using an anti-NKp46 mAb for 4 hours in the presence of 10 μM FPL 64176, and GLI1 expression was assessed using qRT-PCR. Data is n=4 independent experiments. (B) NK-92 cells were stimulated using an anti-NKp46 mAb for 4 hours in the presence of 100 μM Bay K8644, and GLI1 expression was assessed using qRT-PCR. Data is n=3 independent experiments. (C) An LDH assay was performed to assess specific cell killing of K562 target cells at indicated effector to target ratios in the presence of 10 μM FPL 64176 (right-hand columns) or carrier control (left-hand columns). Error bars indicate SD. Data is from n=3 independent experiments.
To investigate whether L-type Cav channel agonists are also capable of enhancing GLI1 mRNA levels in the human NK cell line NK-92 (a non-Hodgkin's lymphoma cell line, expressing only Cav1.3), NK-92 cells were stimulated using an anti-NKp46 mAb (5 μg/mL) for 4 hours in the presence of either 10 μM FPL 64176 or 100 μM Bay K8644. For reference, Bay K8644 is a structural analogue of nifedipine, and acts as an L-type Cav channel agonist. GLI1 expression was assessed using qRT-PCR. […] These observations confirm that the GLI1-inducing effect of Cav agonists is not merely restricted to the compound FPL 64176. In particular, in NK cells.

K562 target cells = experiment: LDH killing assay, NK-92 cells with K562 target cells; format: cell-based, human; details: 10 μM, vs carrier control
Protocol: FIG. 5. L-type Cav channel agonists increase GLI1 expression in the human NK cell line NK-92 and promote specific tumour cell killing. (A) NK-92 cells were stimulated using an anti-NKp46 mAb for 4 hours in the presence of 10 μM FPL 64176, and GLI1 expression was assessed using qRT-PCR. Data is n=4 independent experiments. (B) NK-92 cells were stimulated using an anti-NKp46 mAb for 4 hours in the presence of 100 μM Bay K8644, and GLI1 expression was assessed using qRT-PCR. Data is n=3 independent experiments. […]
FIG. 7. […] Killing of K562 tumour cells was assessed after 24 h by LDH killing assay. […]
In order to establish whether an increase in GLI1 expression is correlated with an increase in NK-92 cell effector function, NK-92 were co-cultured with K562 myelogenous leukaemia cells in the presence of 10 μM FPL 64176 or carrier control, at the effector:target ratios indicated in FIG. 5C. Cell killing was assessed using the LDH assay, as previously described.
To determine if the increased specific cell killing seen in Gorlin patients can be achieved by engineering cells to express a gain-of-function mutation resulting in increased Gli1 signalling, NK-92 cells were engineered to stably express the I756T GOF mutation in Cav1.4. […] Killing of K562 tumour cells was assessed after 24 h by LDH killing assay. […]

## COC(=O)c1c(C)[nH]c(C)c1C(=O)c1ccccc1Cc1ccccc1 [FPL 64176]
Gli1 [1]; anti-CD3ε restimulation 6 hours, indicated concentrations, vs carrier control (FIG. 2)
  Gli1 expression following TCR activation: successfully enhances
Gli1 [1]; anti-CD3ε stimulation 3 hours, 5 or 10 μM, pre-incubation 40-50 mins, vs carrier control
  Gli1 expression: dose-dependent increase
GLI1 [2]; stimulated with anti-NKp46 mAb 4 hours, vs carrier control
  GLI1 expression: increased
GLI1 [2]; unstimulated cells
  GLI1 expression: No significant increase
K562 target cells
  target cell killing by NK-92 cells: enhanced
